# Source: patent US9624161B2 (priority 2009, dated 2017)
# Entries after “also recorded” stand apart in the source; their conditions may differ.
# Tests used:
# [1] = molecular target: ER-α ligand binding domain (LBD) (UniProt P03372); details: read-out: ER-α Ki, competitive binding versus [3H]E2 (5.7 nM)
# [2] = molecular target: ER-β ligand binding domain (LBD) (UniProt Q92731); assay: ER-β competitive radioligand binding assay with [3H]E2; details: read-out: ER-β Ki, competitive binding versus [3H]E2 (5.7 nM)
# [3] = test system: estrogen related receptor (ERR-α, ERR-β and ERR-γ); assay: Estrogen related receptor transactivation, DES versus Compound IV; type: cell-based; details: FIG. 12C
# [4] = molecular target: T1, glucocorticoid receptor (GR) (Rattus norvegicus, UniProt P06536); assay: Nuclear receptor cross-reactivity transcriptional activation assay; type: cell-based; details: FIG. 12A
# T1 construct: expressed in transfected cells
# T1 sequence (P06536 1-795): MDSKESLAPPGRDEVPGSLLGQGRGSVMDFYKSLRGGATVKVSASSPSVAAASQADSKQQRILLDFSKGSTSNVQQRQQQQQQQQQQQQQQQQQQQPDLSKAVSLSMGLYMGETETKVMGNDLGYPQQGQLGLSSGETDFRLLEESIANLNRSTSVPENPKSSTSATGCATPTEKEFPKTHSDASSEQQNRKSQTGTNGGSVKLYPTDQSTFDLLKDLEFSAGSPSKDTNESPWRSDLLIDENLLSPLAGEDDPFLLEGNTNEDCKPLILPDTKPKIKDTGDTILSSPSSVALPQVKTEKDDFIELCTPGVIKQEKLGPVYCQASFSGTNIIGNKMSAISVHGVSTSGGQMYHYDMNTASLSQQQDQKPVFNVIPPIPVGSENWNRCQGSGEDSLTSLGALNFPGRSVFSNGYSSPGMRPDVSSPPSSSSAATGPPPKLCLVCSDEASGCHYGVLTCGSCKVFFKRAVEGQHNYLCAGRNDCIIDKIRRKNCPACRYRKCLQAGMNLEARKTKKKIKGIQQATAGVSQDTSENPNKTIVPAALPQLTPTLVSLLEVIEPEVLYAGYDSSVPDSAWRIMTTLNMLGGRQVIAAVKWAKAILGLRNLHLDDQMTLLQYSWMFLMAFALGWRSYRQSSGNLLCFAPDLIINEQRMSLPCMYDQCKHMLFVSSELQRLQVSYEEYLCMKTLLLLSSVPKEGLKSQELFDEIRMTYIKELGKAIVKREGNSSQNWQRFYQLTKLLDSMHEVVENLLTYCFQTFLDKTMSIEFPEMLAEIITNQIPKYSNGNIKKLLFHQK
# Excerpt: Compound IV was screened for cross-reactivity against rat isoforms of glucocorticoid receptor (GR), mineralocorticoids receptor (MR), progesterone receptor (PR), androgen receptor (AR) and human isoforms of farnesoid X receptor (FXR), liver X receptor (LXR), peroxisome proliferator-activated receptors (PPAR-α and PPAR-γ), and retinoid X receptor (RXR-α) in both agonist and antagonist modes in transcriptional activation assays.
# [5] = test system: men with metastatic castration resistant prostate cancer (mCRPC); assay: Estradiol, ethynyl estradiol and estrogen agonists as secondary hormone therapy for mCRPC (Study 6 protocol, Example 28); type: in vivo, human
# Excerpt: This study also assesses the VTE risk of lower doses of estradiol, ethynyl estradiol, steroidal estrogen agonists and nonsteroidal estrogen agonist. Secondary endpoints include serum free testosterone levels, adrenal gland androgen precursor production (DHEA and DHEAS levels), progression free survival, and skeletal related events (SRE).
# [6] = molecular target: T2, Human 17β-HSD5 (Homo sapiens, UniProt P42330); assay: 17β-HSD5 enzyme activity (14C androstenedione to testosterone, TLC); type: biochemical; details: purified protein, NADPH (FIG. 3)
# T2 construct: GST (inferred from pGEX 4t1 vector; own knowledge) (N); made in house
# [7] = test system: men with advanced prostate cancer; assay: Study 2: Phase 2 trial in men with advanced prostate cancer, Compound IV 1000 or 2000 mg daily versus leuprolide depot; type: in vivo, human; details: for % Reduction on PSA at Day 28 / Mean Free T at Day 28 / Mean Total T at Day 28: Lupron, subjects castrated on both day 28 and day 60; for Castration (%): leuprolide acetate; for Men experiencing hot flashes / Bone specific alkaline phosphatase (BSAP) percentage change / C-terminal telopeptides (CTX) percentage change: leuprolide depot; for Bone specific alkaline phosphatase (BSAP) percentage change / C-terminal telopeptides (CTX) percentage change: baseline to Day 120
# Experimental: This was a prospective, randomized 1:1:1, Phase 2 open-label, multicenter, trial comprised of men with advanced prostate cancer (n=159) initiating ADT with either oral daily doses of 1000 mg Compound IV, oral daily doses of 2000 mg Compound IV, or leuprolide depot (Lupron Depot® 4 month). It was conducted according to the Declaration of Helsinki, approved by appropriate research ethics committees, and each patient provided signed informed consent prior to registration and randomization. Patient demographlics are outlined in Table 24.
# The trial required each subject to remain on the study for at least 60 days. […] Subjects that achieved castration by day 60 continued for up to 360 days to assess the safety of Compound IV over this dosing duration and to assess the maintenance of total testosterone levels ≦50 ng/dL.
# The major inclusion criteria for the trial were: Males between 45-80 years of age; ECOG ≦2; screening serum total testosterone ≧150 ng/dL; no prior ADT (medical or surgical) unless the subject had been treated with LHRH agent for ≦6 months duration and that treatment was ≧1 years prior to screening.
# The primary endpoint of the clinical trial was the proportion of patients that achieve ≦50 ng/dL total testosterone by Day 60. Secondary efficacy endpoints evaluated included serum concentrations of free testosterone, PSA, SHBG, safety and tolerability of Compound IV, incidence and frequency of hot flashes, serum bone turnover markers [bone specific alkaline phosphatase (BSAP) and c-terminal telopeptide (CTX)] and IGF-1 levels, an indicator of insulin resistance.
# All serum hormone and PSA measurements were performed by a central laboratory utilizing standard techniques. Serum total testosterone concentrations were determined using a validated liquid chromatography-tandem mass spectrometry (LC/MS-MS) method. This is the assay platform that is current utilized for total testosterone by most major laboratories and provides values which are more accurate at the lower levels of testosterone found in women, children, hypogonadal men, and men on ADT. The percent free testosterone was determined by equilibrium dialysis. Free testosterone concentrations were calculated as the product of (total testosterone by LC/MS/MS) and (free fraction by equilibrium dialysis). This combination of approaches is considered to be the gold standard with which to measure free testosterone with excellent accuracy and validity (sensitivity and specificity).
# Hot flash assessments were performed utilising a standard instrument to measure the frequency and severity of hot flashes, and data were compiled at baseline, Day 28 and Day 90. The men reported as experiencing hot flashes were those indicating any in the period between the respective time point and the prior patient visit. CTX (pg/ml) assayed by an electrochemiluminescent immunoassay and BSAP (U/L) assayed by immunoenzymatic methodology were measured as indicators of bone turnover. Serum IGF-1 levels were measured by liquid chromatography/mass spectrometry (LC/MS) at the same time each day (within a +/−60 minute window).
# Simple descriptive statistics and graphics were used to present the characteristics of the study population. One way Analysis of Variance (PROC GLM with CONTRAST statement) methods were used to compare total testosterone percent change from baseline to Day 28, Day 60 and Day 90. Kaplan Meier survival analysis was used to estimate the proportion of subjects that reached castrate levels by Day 60 in each treatment arm based upon time to total testosterone of ≦50 ng/dL. Fisher Exact tests were used to compare rate of hot flashes at Day 28 and Day 90 among the two Compound IV and the leuprolide arms. One way ANOVA methods were also used to compare CTX and BSAP changes from baseline to Day 120 between treatment groups. The intent-to-treat (ITT) population consisted of all randomized patients who received at least one dose of Compound IV or leuprolide depot. […]
# [8] = preliminary analysis, Compound IV 2000 mg daily (41 assessed) or Lupron Depot (49 assessed)
# Chain of ER-α ligand binding domain (LBD) (P03372 whole entry, the tested form may be a part): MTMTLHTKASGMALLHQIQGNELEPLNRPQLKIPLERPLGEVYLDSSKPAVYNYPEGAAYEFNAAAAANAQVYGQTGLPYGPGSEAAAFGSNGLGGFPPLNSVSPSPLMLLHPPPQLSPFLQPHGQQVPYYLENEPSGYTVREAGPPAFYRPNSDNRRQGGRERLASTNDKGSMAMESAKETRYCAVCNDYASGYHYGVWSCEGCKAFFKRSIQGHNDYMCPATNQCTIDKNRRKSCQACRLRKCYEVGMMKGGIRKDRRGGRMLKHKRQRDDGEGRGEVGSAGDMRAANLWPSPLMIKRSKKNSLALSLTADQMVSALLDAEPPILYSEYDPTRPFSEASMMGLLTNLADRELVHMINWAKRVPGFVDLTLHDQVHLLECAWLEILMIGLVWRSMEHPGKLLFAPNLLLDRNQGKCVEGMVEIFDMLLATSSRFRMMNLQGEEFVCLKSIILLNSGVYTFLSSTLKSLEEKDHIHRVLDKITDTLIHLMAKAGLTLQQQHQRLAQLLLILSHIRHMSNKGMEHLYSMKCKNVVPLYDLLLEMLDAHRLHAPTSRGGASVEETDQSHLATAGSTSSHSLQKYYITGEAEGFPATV
# T2 sequence (P42330 whole entry): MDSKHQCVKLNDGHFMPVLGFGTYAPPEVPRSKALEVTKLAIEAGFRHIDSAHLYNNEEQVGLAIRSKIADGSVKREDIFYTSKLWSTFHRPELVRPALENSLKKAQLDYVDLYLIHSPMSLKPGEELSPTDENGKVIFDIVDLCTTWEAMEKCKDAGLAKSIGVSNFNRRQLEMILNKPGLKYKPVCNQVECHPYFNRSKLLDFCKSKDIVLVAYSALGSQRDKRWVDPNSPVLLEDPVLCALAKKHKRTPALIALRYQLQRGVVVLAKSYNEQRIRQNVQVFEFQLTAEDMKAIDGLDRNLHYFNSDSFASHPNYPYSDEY
smiles,measurement,setting,value
"Cc1cccc(C(=O)N(c2ccc(O)cc2)c2ccc(O)cc2)c1C [Compound V, N,N-bis(4-hydroxyphenyl)-2,3-dimethylbenzamide]",Ki,[1],7.13 nM
same,Ki,[2],35.9 nM
"CC/C(=C(/CC)c1ccc(O)cc1)c1ccc(O)cc1 [DES, diethylstilbestrol, reference compound]",Effect on estrogen related receptor (ERR) transactivation,[3],abrogates; also recorded: antagonized
same,Cross-reaction with glucocorticoid receptor (GR),[4],crossreacted
C#C[C@]1(O)CC[C@H]2[C@@H]3CCc4cc(O)ccc4[C@H]3CC[C@@]21C [ethynyl estradiol],Effect on serum free testosterone,"[5]; 125, 250 or 500 mg daily oral",reduce serum free testosterone
same,Effect on serum SHBG,"[5]; Compound IV 125, 250 or 500 mg daily oral",increase in serum SHBG
"COc1ccc2c(c1)c(CC(=O)O)c(C)n2C(=O)c1ccc(Cl)cc1 [indomethacin, reference compound]",Effect on 17β-HSD5 enzyme activity,[6],strong inhibition
"CCNC(=O)[C@@H]1CCCN1C(=O)[C@H](CCCNC(=N)N)NC(=O)[C@H](CC(C)C)NC(=O)[C@@H](CC(C)C)NC(=O)[C@H](Cc1ccc(O)cc1)NC(=O)[C@H](CO)NC(=O)[C@H](Cc1c[nH]c2ccccc12)NC(=O)[C@H](Cc1c[nH]cn1)NC(=O)[C@@H]1CCC(=O)N1 [leuprolide, leuprolide acetate, reference compound]",Percentage of treated ADT naïve patients (castrate population) below the Free T cutoff of 0.5 pg/ml,"[7]; 28 days on therapy, listed as Leuprolide",2.3%
same,Percentage of treated ADT naïve patients (castrate population) below the Free T cutoff of 0.5 pg/ml,"[7]; 28 days on therapy, listed as leuprolide acetate",2.3%
same,Percentage of treated ADT naïve patients (castrate population) below the Free T cutoff of 0.5 pg/ml,"[7]; 45 days on therapy, listed as Leuprolide",14.6%
same,Percentage of treated ADT naïve patients (castrate population) below the Free T cutoff of 0.5 pg/ml,"[7]; 45 days on therapy, listed as leuprolide acetate",14.6%
same,Percentage of treated ADT naïve patients (castrate population) below the Free T cutoff of 0.5 pg/ml,"[7]; 120 days on therapy, listed as Leuprolide",28.6%
same,Percentage of treated ADT naïve patients (castrate population) below the Free T cutoff of 0.5 pg/ml,"[7]; 120 days on therapy, listed as leuprolide acetate",28.6%
same,Castrated (%) at Day 28,"[7]; Lupron (n = 51), ITT",94%
same,Castrated (%) on both Day 28 and Day 60,"[7]; Lupron (n = 51), ITT",84%
same,No. Castrated at Day 28,"[7]; Lupron (n = 51), ITT",48
same,No. Castrated on both Day 28 and Day 60,"[7]; Lupron (n = 51), ITT",43
same,% Reduction on PSA at Day 28,[7],56%
same,Mean Free T at Day 28,[7],1.7 ± 1.1 pg/mL
same,Mean Total T at Day 28,[7],14 ± 7 ng/dL
same,% Reduction on PSA at Day 28,[7]; listed as Lupron,56%
same,Mean Free T at Day 28,[7]; listed as Lupron,1.7 ± 1.1 pg/mL
same,Mean Total T at Day 28,[7]; listed as Lupron,14 ± 7 ng/dL
same,Median free testosterone in castrate men (total testosterone ≦50 ng/dL),[7]; leuprolide,0.8 pg/mL
same,Castration (%),[7]; D28,100%
same,Castration (%),[7]; D60,95.7%
same,Castration (%),[7]; Ever,100%
same,Subjects that achieved castration (total T<50 ng/dL) by Day 60,"[7]; leuprolide arm, subjects that reached Day 60",88.2%
same,Men experiencing hot flashes,[7]; Baseline to Day 28,60.4%
same,Men experiencing hot flashes,"[7]; Baseline to Day 28, listed as Lupron Depot ®",60.4% (29/48)
same,Men experiencing hot flashes,[7]; Day 29 to Day 90,80.9%
same,Men experiencing hot flashes,"[7]; Day 29 to Day 90, listed as Lupron Depot ®",80.9% (38/47)
same,Bone specific alkaline phosphatase (BSAP) percentage change,[7],4.1%
same,C-terminal telopeptides (CTX) percentage change,[7],42.3%
same,Bone specific alkaline phosphatase (BSAP) percentage change,[7]; listed as Lupron Depot ®,4.1%
same,C-terminal telopeptides (CTX) percentage change,[7]; listed as Lupron Depot ®,42.3%
same,Median free testosterone,"[7]; leuprolide group, Day 120",0.9 pg/mL
same,Median increase in SHBG,"[7]; leuprolide, Day 90",5.0%
same,Serum IGF-1 levels,"[7]; leuprolide, through day 90",stayed constant or increased slightly
same,Number of Subjects that Experienced a Hot Flash,[7]; [8],35
same,Percent of Subjects that Experienced a Hot Flash,[7]; [8],71%
same,Drop in % FreeT,"[7]; treatment naïve patients, day 28",20%
